What was measured:
CA1D cells = test: Seahorse XF Cell Mito Stress Test (oxygen consumption rate); format: cell-based, human; details: siTROLL-8 vs siNT CA1D cells; OCR normalized to groups without inhibitor; Etomoxir 4.0 μM, UK5099 2.0 μM, BPTES 3.0 μM
Procedure: The oxygen consumption rate (OCR) of cells was measured on the Seahorse XF96 extracellular flux analyzer (Agilent Technologies) using a Seahorse XF Cell Mito Stress Test kit in accordance with the manufacturer's instructions. Briefly, siNT or siTROLL-8 CA1D cells (3.0×10^4 cells/well) were seeded in 6 wells (technical replicates) of a 96 well Agilent Seahorse XF Cell Culture Microplate in full growth medium and attached overnight. Hydrate a sensor cartridge in Seahorse XF Calibrant in a non-CO2 incubator at 37° C. overnight. On the day of assay, cells were carefully washed and the growth medium was replaced with prewarmed Seahorse XF base medium (Agilent Technologies) supplemented with 5 mM HEPES, 10 mM glucose, 1 mM sodium pyruvate, and 2 mM L-Glutamine, pH 7.4). The plates of cells in assay medium were incubated in a non-CO2 incubator at 37° C. for 1 h. Prepare compound stock solutions for loading sensor cartridge ports and load the XF96 sensor cartridge to Seahorse XF96 analyzer. Take three basal measurements and determine oxygen and proton concentration in the medium. […]

CPT1A = test: LC-MS of carnitine and fatty acyl-carnitine to reflect CPT1A activity; format: cell-based, human
Procedure: 1.5×10^6 CA1D cells were transfected with either siNT (negative control) or siTROLL-8. 48 h after the transfection, the cells were collected and washed 2-3 times with ice-cold PBS. To analyze global metabolite abundances regulated by TROLL-8, an aliquot of the internal standard mixture was added into siNT and siTROLL-8 cell samples for untargeted metabolomics analysis. The internal standards were obtained from Cambridge Isotope Labs and include the following labelled compounds: Glucose (2,3,4,5,6-^13C5), D-Glucose-6-phosphate (U-^13C6), D-Fructose-1,6-bisphosphate (U-^13C6), L-Serine (^13C3), Glycine (1,2-^13C2), L-Cysteine (3,3-D2), Phosphoenol Pyruvate (2,3-^13C2), Lactate (3,3,3-D3), Pyruvate (D3), Acetyl-1,2-^13C2 CoA, Citric Acid (2,2,4,4-D4), Alpha-Ketoglutaric Acid (1,2,3,4-^13C4), Succinic Acid (D4), Fumaric Acid (D4), DL-Malic Acid (2,3,3-D3), D-Fructose-6-phosphate (U-^13C6). 1 ml of precooled 80% methanol extraction solvent (kept in the −80° C. freezer at least 1 h prior to extraction) was added to the sample for protein precipitation. After addition of the extraction solvent, the samples were vortexed and centrifuged at 18,800×g (Microfuge 22R, Beckman Coulter) at 0° C. for 10 min. Then, the samples were incubated for 30 min in a −80° C. freezer to increase metabolite extraction. After incubation, the samples were immediately centrifuged at 18,800×g at 4° C. for 10 min. Then the supernatant was transferred to a new microcentrifuge tube for drying in SpeedVac vacuum concentrator (Thermo Fisher Scientific). The protein pellet was resolubilized using aqueous 20 mM HEPES with 8M urea for Bradford Assay to measure the protein concentration. Dried metabolites were re-dissolved in 20 μl aqueous 80% methanol. Ultra-high performance liquid chromatography-high resolution mass spectrometry (UHPLC-HRMS) was performed using a Vanquish UHPLC interfaced with a Q Exactive HF quadrupole-orbital ion trap mass spectrometer (Thermo, San Jose, CA). Chromatographic separation was performed using a SeQuant ZIC-pHILIC guard column (2.1 mm ID×20 mm length, 5 μm particle size) and a SeQuant ZIC-pHILIC LC column (2.1 mm ID×150 mm length, 5 μm particle size, MilliporeSigma, Burlington, MA). Mobile phase A was aqueous 10 mM ammonium carbonate and 0.05% ammonium hydroxide, and mobile phase B was 100% acetonitrile. The gradient program included the following steps: start at 80% B, a linear gradient from 80 to 20% B over 13 min, stay at 20% B for 2 min, return to 80% B in 0.1 min, and re-equilibration for 4.9 min for a total run time of 20 min. The flow rate was set to 0.250 ml/min. The autosampler was cooled to 5° C. and the column temperature was set to 30° C. Sample injection volume was 2 μl for both positive ion mode and negative ion mode electrospray ionization. Full MS was performed in positive and negative mode separately detecting ions from m/z 65 to m/z 900. MZmine software, version 3.39, was used to identify and quantify metabolites by matching by m/z and RT to an in-house library. Data normalization was carried out using the protein concentration. For acetyl-CoA detection, spike heavily labelled internal standards (3 labelled Acyl CoAs) into each sample. For fatty acyl-carnitine detection, spike heavily labelled internal standards (3 labelled Acyl Carnitine) into each sample. An aliquot (300 μl) of cold 80% methanol extraction solvent (leave in −80° C. at least one hour prior to the experiments) is added to the sample for protein precipitation. After vortexing, the samples are then incubated in the −80° C. freezer for 30 mins, followed by centrifugation at 18,800×g (Microfuge 22R, Beckman Coulter) at 0° C. for 10 mins. Then the supernatant is transferred to new Eppendorf tubes for drying in SpeedVac vacuum concentrator (Thermo Fisher Scientific). The protein pellet is left behind and proceeds for protein concentration measurement by Bradford Assay. […]

[1] = molecular target: T1, carnitine palmitoyltransferase 1A (CPT1A) (human, UniProt P50416 2-773); test: co-IP with anti-CPT1A antibody from CA1D cell lysate, western blot
T1 construct: Endogenous protein immunoprecipitated from cell lysate with anti-CPT1A antibody (15184-1-AP, Proteintech); also called FAO rate-limiting enzyme
T1 sequence (looked up): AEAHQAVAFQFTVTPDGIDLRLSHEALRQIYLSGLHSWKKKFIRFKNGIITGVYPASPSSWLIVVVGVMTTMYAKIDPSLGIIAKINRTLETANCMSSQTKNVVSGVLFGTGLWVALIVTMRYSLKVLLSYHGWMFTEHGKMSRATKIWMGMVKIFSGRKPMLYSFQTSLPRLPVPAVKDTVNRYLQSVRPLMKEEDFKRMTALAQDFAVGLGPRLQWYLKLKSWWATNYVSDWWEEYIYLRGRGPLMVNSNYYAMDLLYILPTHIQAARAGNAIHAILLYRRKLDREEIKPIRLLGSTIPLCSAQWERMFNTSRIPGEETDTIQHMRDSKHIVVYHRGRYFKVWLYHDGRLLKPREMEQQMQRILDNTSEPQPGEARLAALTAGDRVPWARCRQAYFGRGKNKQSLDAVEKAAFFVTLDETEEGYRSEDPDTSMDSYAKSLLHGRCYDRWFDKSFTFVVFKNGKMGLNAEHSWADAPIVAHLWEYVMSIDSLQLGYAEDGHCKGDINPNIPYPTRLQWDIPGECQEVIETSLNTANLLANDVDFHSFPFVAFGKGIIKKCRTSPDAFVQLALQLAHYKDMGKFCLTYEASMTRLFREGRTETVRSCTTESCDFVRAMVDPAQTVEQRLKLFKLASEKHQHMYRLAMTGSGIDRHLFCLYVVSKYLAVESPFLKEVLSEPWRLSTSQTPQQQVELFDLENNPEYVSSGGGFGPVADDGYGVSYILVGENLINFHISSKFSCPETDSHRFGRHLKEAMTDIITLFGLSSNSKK
Excerpt: Beyond its classical activity, ACAT1 acetylates the Pyruvate Dehydrogenase Phosphatase Catalytic Subunit1 (PDP1) and the Pyruvate Dehydrogenase E1 Subunit Alpha1 (PDHA1) in the Pyruvate Dehydrogenase Complex (PDC), which negatively regulates the activity of Pyruvate Dehydrogenase (PDH) in glycolysis and tumor growth. […] In the experiment, we have the following groups: whole cell lysate (5% of the total input); cell lysate from either CA1D cells, or siNT/siTROLL-8 treated CA1D cells immunoprecipitated with CPT1A specific antibody; or the same cell lysate immunoprecipitated with normal IgG control antibody. […] While there is no change in the expression level of either CPT1A or ACAT1 in the whole cell lysate, CPT1A specifically immunoprecipitated more ACAT1 (by around 2-fold) in siTROLL-8 CA1D cells compared to non-treated cells, confirming the LC-MS discovery that TROLL-8 depletion increased the physical interaction between CPT1A and ACAT1.
4 mg cell lysate of CA1D cells were prepared using RIPA buffer and used to test the interaction between CPT1A and ACAT1. 4 mg cell lysate of either CA1D cells transfected with siRNAs for TROLL-8, or with the non-targeting siRNA as a negative control, were used to test the change in the interaction between CPT1A and ACAT1. The CoIP assay was performed according to the protocol provided with the anti-CPT1A primary antibody (15184-1-AP). […]

[2] = molecular target: T1, carnitine palmitoyltransferase 1A …; test: co-IP with anti-CPT1A antibody from CA1D cell lysate, LC-MS/MS proteomics
Procedure: 4 mg cell lysate of CA1D cells were prepared using RIPA buffer and used to test the interaction between CPT1A and ACAT1. 4 mg cell lysate of either CA1D cells transfected with siRNAs for TROLL-8, or with the non-targeting siRNA as a negative control, were used to test the change in the interaction between CPT1A and ACAT1. The CoIP assay was performed according to the protocol provided with the anti-CPT1A primary antibody (15184-1-AP). Add anti-CPT1A primary antibody (15184-1-AP, Proteintech) or negative control normal rabbit IgG (#2729, Cell Signaling) corresponding to the primary antibody source to the lysate with gentle rocking at 4° C. for 12 h. 50 ul Protein G Dynabeads slurry were added to capture the immunocomplex with gentle rocking at 4° C. for 12 h. Collect the beads with magnetic stand and discard the supernatant. Wash the beads 3 times with 1 ml 0.2% TBST, collect the beads with magnetic stand and discard the supernatant. […] The interaction was then detected via western blot using the following primary antibodies: CPT1A (ab128568, Abcam), ACAT1 (ab168342, Abcam), and beta-actin (A5441, Sigma-Aldrich).
1.5×10⁶ CA1D cells were transfected with either siNT (negative control) or siTROLL-8. […] The SDS-PAGE gel bands or the immunoprecipitated proteins were extracted, digested with trypsin, and analyzed via LC-MS/MS and the identified peptides are listed in Supplementary Data 1. […]

[3] = CA1D cells with shCPT1A and CPT1A WT/KQ/KR overexpression, mutants compared to CPT1A overexpression

CCOC(=O)[C@@]1(CCCCCCOc2ccc(Cl)cc2)CO1 [Etomoxir]
impact of fuel oxidation inhibitor in basal respiration upon TROLL-8 depletion (CA1D cells): increased the impact
fatty acylcarnitine level (CPT1A; [3]): reduced
free carnitine level (CPT1A; [3]): augmented
long-chain fatty acylcarnitine levels (CPT1A; CA1D cells, 10 μM Etomoxir): significantly reduced
medium-chain fatty acylcarnitine levels (CPT1A; CA1D cells, 10 μM Etomoxir): significantly reduced
short-chain fatty acylcarnitine levels (CPT1A; CA1D cells, 10 μM Etomoxir): significantly reduced
level of carnitine (substrate for CPT1A activity) (CPT1A; CA1D cells, siNT, siTROLL-8, siNT+Eto, 10 μM Etomoxir): increased

N#C/C(=C\c1cn(-c2ccccc2)c2ccccc12)C(=O)O [UK5099]
impact of fuel oxidation inhibitor in basal respiration upon TROLL-8 depletion (CA1D cells): increased the impact

B1: ACAT1, the acetyl-CoA acetyltransferase 1 protein (enzyme, human, UniProt P24752 34-427, looked up)
chain: VSKPTLKEVVIVSATRTPIGSFLGSLSLLPATKLGSIAIQGAIEKAGIPKEEVKEAYMGNVLQGGEGQAPTRQAVLGAGLPISTPCTTINKVCASGMKAIMMASQSLMCGHQDVMVAGGMESMSNVPYVMNRGSTPYGGVKLEDLIVKDGLTDVYNKIHMGSCAENTAKKLNIARNEQDAYAINSYTRSKAAWEAGKFGNEVIPVTVTVKGQPDVVVKEDEEYKRVDFSKVPKLKTVFQKENGTVTAANASTLNDGAAALVLMTADAAKRLNVTPLARIVAFADAAVEPIDFPIAPVYAASMVLKDVGLKKEDIAMWEVNEAFSLVVLANIKMLEIDPQKVNINGGAVSLGHPIGMSGARIVGHLTHALKQGEYGLASICNGGGGASAMLIQKL
notes: Endogenous protein co-immunoprecipitated with CPT1A from cell lysate; also called acetyltransferase ACAT1
fold change of ACAT1 immunoprecipitated by CPT1A (siTROLL-8 vs non-treated CA1D cells) [1]: ~2 fold
fold change of co-immunoprecipitation with CPT1A (TROLL-8 depleted vs non-treated CA1D cells) [2]: ~2 fold
